# Data taken from ChEMBL document CHEMBL6087462, “Cuminaldehyde Potentiates Antiproteolytic Peptide Efficacy via Parallel Pathways of Enhanced Inner Membrane-Damaging Activity and Inhibition of Bacterial Energy Metabolism” (J Med Chem, 2025).
# Assays:
# Escherichia coli [1] = test: Synergistic antimicrobial activity against Escherichia coli K88 assessed as fractional inhibitory concentration index in presence of perillaldehyde by checkerboard broth microdilution assay; format: functional
# Escherichia coli [2] = test: Synergistic antimicrobial activity against Escherichia coli K88 assessed as fractional inhibitory concentration index in presence of thymol by checkerboard broth microdilution assay; format: functional
# Salmonella typhimurium [3] = test: Synergistic antimicrobial activity against Salmonella typhimurium 7731 assessed as fractional inhibitory concentration index in presence of cuminaldehyde by checkerboard broth microdilution assay; format: functional, Salmonella enterica subsp. enterica serovar Typhimurium
# Salmonella typhimurium [4] = test: Synergistic antimicrobial activity against Salmonella typhimurium 7731 assessed as fractional inhibitory concentration index in presence of perillaldehyde by checkerboard broth microdilution assay; format: functional, Salmonella enterica subsp. enterica serovar Typhimurium
# [5] = Synergistic antimicrobial activity against Salmonella enterica subsp. enterica serovar Pullorum 7913 assessed as fractional inhibitory concentration index in presence of perillaldehyde by checkerboard broth microdilution assay; format: functional
# Pseudomonas aeruginosa = test: Synergistic antimicrobial activity against Pseudomonas aeruginosa 27853 assessed as fractional inhibitory concentration index in presence of cuminaldehyde by checkerboard broth microdilution assay; format: functional
# Staphylococcus aureus [6] = test: Synergistic antimicrobial activity against Staphylococcus aureus 29213 assessed as fractional inhibitory concentration index in presence of cuminaldehyde by checkerboard broth microdilution assay; format: functional
# Staphylococcus aureus [7] = test: Synergistic antimicrobial activity against Staphylococcus aureus 43300 assessed as fractional inhibitory concentration index in presence of carvacrol by checkerboard broth microdilution assay; format: functional
# Enterococcus faecalis = test: Antimicrobial activity against Enterococcus faecalis ATCC 29212 assessed as cuminaldehyde MIC by CLSI based broth microdilution method; format: functional
smiles,measurement,setting,value
CC[C@H](C)[C@H](NC(=O)[C@@H](NC(=O)[C@@H](CCCNC(=N)N)NC(=O)[C@H](C)NC(=O)[C@H](C)NC(=O)[C@@H](N)Cc1cccc2ccccc12)[C@@H](C)CC)C(=O)N[C@@H](CC(C)C)C(=O)N[C@H](CCCNC(=N)N)C(=O)N[C@@H](Cc1c[nH]c2ccccc12)C(=O)N[C@H](CCCNC(=N)N)C(=O)N[C@@H](Cc1ccccc1)C(=O)N[C@@H](CCCNC(=N)N)C(=O)O,fractional inhibitory concentration index (FICI),Escherichia coli [1],0.375
same,fractional inhibitory concentration index (FICI),Escherichia coli [2],0.313
same,fractional inhibitory concentration index (FICI),Salmonella typhimurium [3],0.125
same,fractional inhibitory concentration index (FICI),Salmonella typhimurium [4],0.254
same,fractional inhibitory concentration index (FICI),[5],0.375
same,fractional inhibitory concentration index (FICI),Pseudomonas aeruginosa,0.156
same,fractional inhibitory concentration index (FICI),Staphylococcus aureus [6],0.094
same,fractional inhibitory concentration index (FICI),Staphylococcus aureus [7],0.75
same,MIC,Enterococcus faecalis,512 µg/mL
